Test system: Balb/C mice
Assay: Oxazolone contact hypersensitivity (CHS) mouse ear swelling
Format: in vivo
Settings: 15 mg/kg; vehicle 107%
Description: Female Balb/C mice (30-40 gms) were sensitised on day 0 with 20 μl of 2% oxazolone in acetone on each ear (10 μl on the inner and outer aspects of both ears). All mice were challenged on day 5 with 20 μl of 2% oxazolone in acetone only on the right ear; again, 10 μl on both the inner and outer aspects of the ear. Immediately following this, the mice were treated with test compound. The test compound was administered in exactly the same way as the oxazolone, with 10 μl on each side of the right ear. […] For the […] group, acetone was administered. All animals were killed 24 hrs later and the percentage increase in ear swelling was calculated. This was done in two ways. The thickness of the unchallenged left ear and the challenged right ear were measured using a micrometer caliper (μm). The increase in weight of both ears was also measured using a 5 mm biopsy punch (mgs). The percentage increase in oedema was then calculated for both weight and thickness by expressing the difference between the unchallenged left ear and the challenged right ear as a percentage of the left ear control.

Q: How did the “increase in ear punch weight” value turn out when `C[C@@H]1C[C@H]2[C@@H]3CCC4=CC(=O)C=C[C@]4(C)[C@@]3(F)[C@@H](O)C[C@]2(C)[C@@]1(O)C(=O)CO` [dexamethasone, reference compound] was run?
A: 42%

Reference: patent publication US20150141523A1, “COMPOUNDS FOR USE IN THE TREATMENT OF AUTOIMMUNE INFLAMMATORY DISEASE” (Venantius Limited, priority 2012, published 2015)
